In patent US12281119B2, “Imidazo[2,1-f][1,2,4]triazin-4-amine derivatives as TLR7 agonist” (BEIGENE, LTD., priority 2019, dated 2025):

Tests used:
Assay type in all cases: cell-based
[1] = molecular target: T1, human TLR7 (Homo sapiens, UniProt Q9NYK1); test: TLR7 stimulation determined using HEK-Blue Detection; parameters: expressed in transfected cells; host or cells: HEK293 (HEK-Blue hTLR7); conditions: HEK-Blue hTLR7 cells, HEK-Blue Detection (A77-A124), 16 hr, relative to Resiquimod maximum
T1 sequence (Q9NYK1 27-1049): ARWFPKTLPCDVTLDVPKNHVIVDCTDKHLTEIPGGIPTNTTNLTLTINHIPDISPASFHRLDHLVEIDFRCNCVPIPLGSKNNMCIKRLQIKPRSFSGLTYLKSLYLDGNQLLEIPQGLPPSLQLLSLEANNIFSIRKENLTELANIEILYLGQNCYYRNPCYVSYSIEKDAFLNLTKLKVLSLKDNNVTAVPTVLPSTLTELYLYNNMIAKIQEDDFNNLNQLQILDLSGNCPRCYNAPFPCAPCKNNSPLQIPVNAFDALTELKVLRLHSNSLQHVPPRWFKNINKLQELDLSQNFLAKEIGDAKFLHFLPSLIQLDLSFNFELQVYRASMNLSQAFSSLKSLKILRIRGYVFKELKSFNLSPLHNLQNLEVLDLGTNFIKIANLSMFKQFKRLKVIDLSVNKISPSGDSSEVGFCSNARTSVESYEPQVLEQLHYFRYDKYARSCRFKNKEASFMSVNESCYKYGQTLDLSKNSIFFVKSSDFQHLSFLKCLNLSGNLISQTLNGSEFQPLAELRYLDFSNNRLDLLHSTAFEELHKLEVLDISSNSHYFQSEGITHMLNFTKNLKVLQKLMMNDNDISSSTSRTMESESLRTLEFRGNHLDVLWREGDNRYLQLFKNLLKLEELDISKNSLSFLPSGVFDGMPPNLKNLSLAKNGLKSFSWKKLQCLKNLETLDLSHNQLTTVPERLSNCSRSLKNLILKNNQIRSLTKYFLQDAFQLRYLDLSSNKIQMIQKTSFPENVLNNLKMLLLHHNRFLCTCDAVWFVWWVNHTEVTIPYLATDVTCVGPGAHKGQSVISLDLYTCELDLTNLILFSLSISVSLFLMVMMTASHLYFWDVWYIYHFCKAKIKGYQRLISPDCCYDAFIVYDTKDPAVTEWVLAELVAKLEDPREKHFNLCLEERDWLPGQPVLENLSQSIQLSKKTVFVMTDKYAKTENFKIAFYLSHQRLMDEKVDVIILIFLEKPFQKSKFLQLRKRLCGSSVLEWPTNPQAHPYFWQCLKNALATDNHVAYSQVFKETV
Description: TLR7 Stimulation Determined Using HEK-Blue Detection
This assay was designed for studying the stimulation of human TLR7 protein in HELK-Blue hTLR7 tool cell line by monitoring the activation of NF-κB. HEK-Blue hTLR7 cells were obtained by co-transfection of the hTLR7 gene and an optimized secreted embryonic alkaline phosphatase (SLAP) reporter gene into HEK293 cells. The SLAP reporter gene was placed under the control of the IFN-β minimal promoter fused to five NF-κB and AP-1-binding sites. Stimulation with a TLR7 ligand activates NF-κB and AP-1 which induce the expression of SLAP. Levels of SLAP can be easily determined with HEK-Blue Detection, a cell culture medium that allows for real-time detection of SLAP. HLK-Blue Detection contains all the nutrients necessary for cell growth and a specific SLAP color substrate. The hydrolysis of the substrate by SLAP produces a purple/blue color that can be measured with a spectrophotometer.
When growing to 50-80%0 confluency, HLK-Blue hTLR7 cells were plated into 96-well plate (costar 3599) at a density of 40000 cells/well. Then compounds were added with serial dilutions over 10 points with a 0.04 nM-10 μM final concentration range in 0.1% DMSO/BLK-Blue Detection. The plates were then incubated for 16 hr at 37° C. in […] and vortex for 30s before measurement. The optical density at 620-655 nm was read on BMG PHLRAstar FSX instrument. The EC50 for each compound was determined by calculating the percentages of the maximum activation identified with Resiquimod.

[2] = molecular target: T2, human TLR 8 protein (Homo sapiens, UniProt Q9NR97); test: TLR8 stimulation determined using HEK-Blue Detection; conditions: HEK-Blue hTLR8 cells, 16 hr, relative to Resiquimod or Motolimod maximum
T2 construct: expressed in transfected cells; host or cells: HEK293 (HEK-Blue hTLR8)
T2 sequence (Q9NR97 27-1041): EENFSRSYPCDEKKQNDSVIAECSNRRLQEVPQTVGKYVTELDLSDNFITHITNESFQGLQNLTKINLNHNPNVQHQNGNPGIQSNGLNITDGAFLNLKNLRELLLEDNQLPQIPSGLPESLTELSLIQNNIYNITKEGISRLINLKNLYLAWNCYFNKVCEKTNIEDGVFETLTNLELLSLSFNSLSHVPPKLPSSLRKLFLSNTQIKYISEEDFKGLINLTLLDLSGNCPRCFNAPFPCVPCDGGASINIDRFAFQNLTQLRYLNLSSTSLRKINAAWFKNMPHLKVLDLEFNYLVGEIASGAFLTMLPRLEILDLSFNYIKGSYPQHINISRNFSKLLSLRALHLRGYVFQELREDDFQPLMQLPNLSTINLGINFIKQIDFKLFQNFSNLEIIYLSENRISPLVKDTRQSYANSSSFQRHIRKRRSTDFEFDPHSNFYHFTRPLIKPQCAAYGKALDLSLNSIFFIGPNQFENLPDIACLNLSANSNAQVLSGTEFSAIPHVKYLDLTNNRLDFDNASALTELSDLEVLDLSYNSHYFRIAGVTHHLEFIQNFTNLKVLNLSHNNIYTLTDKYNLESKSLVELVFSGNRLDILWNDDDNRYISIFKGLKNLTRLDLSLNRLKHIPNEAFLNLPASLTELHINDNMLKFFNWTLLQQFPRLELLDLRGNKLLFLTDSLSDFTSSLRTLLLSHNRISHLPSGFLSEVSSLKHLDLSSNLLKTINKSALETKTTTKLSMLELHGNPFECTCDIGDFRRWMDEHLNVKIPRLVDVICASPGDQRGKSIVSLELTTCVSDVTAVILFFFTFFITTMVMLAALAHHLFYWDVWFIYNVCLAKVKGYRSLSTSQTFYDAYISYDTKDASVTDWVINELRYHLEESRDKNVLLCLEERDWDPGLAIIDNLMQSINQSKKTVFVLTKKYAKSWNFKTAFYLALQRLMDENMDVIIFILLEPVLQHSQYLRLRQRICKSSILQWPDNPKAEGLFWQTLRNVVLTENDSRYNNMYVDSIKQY
Description: TLR8 Stimulation Determined Using HEK-Blue Detection
This assay was designed for studying the stimulation of human TLR 8 protein in HEK-Blue hTLR8 tool cell line by monitoring the activation of NF-1B. HEK-Blue hTLR8 cells were obtained by co-transfection of the hTLR8 gene and an optimized secreted embryonic alkaline phosphatase (SEAP) reporter gene into HEK293 cells. The SEAP reporter gene was placed under the control of the IFN-β minimal promoter fused to five NF-κB and AP-1-binding sites. Stimulation with a TLR 8 ligand activates NF-κB and AP-1 which induce the expression of SEAP. Levels of SEAP can be easily determined with HEK-Blue Detection, a cell culture medium that allows for real-time detection of SEAP. HEK-Blue Detection contains all the nutrients necessary for cell growth and a specific SEAP color substrate. The hydrolysis of the substrate by SEAP produces a purple/blue color that can be measured with a spectrophotometer.
When growing to 50-80% confluency, HEK-Blue hTLR7/8 cells were plated into 96-well plate (costar 3599) at a density of 40000 cells/well. Then compounds were added with serial dilutions over 10 points with a 1 nM-10 uM final concentration range in 0.1% DMSO/HEK-Blue Detection. The plates were then incubated for 16 hr at 37° C. in 5% CO2. The optical density at 620-655 nm was read on BMG PHERAstar FSX instrument. The EC50 for each compound was determined by calculating the percentages of the maximum activation identified with Resiquimod or Motolimod.

[3] = molecular target: T1, human TLR7; test: HEK293-Blue hTLR7 reporter assay (QUANTI-BLUE, SEAP readout); parameters: host or cells: HEK293 (HEK-Blue-hTLR7); conditions: HEK-Blue-hTLR7 cells, QUANTI-BLUE assay (A1-A76), 24 hrs
Procedure, shortened: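 Cells seeded at 4×10^4 per well in DMEM/10% heat-inactivated FBS, settled 5 h, then exposed to increasing compound amounts for 24 h at 37° C. Secreted SEAP in supernatant read with Quanti-blue at 620-655 nm after 10-30 min at 37° C.; EC50 from sigmoidal dose-response fit.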

Work on CC[C@H](C)Oc1nc(N)c2ncc(Cc3ccc(OCCNC)nc3)n2n1 [Compound A89, (S)-2-(sec-butoxy)-7-((6-(2-(methylamino)ethoxy)pyridin-3-yl)methyl)imidazo[2,1-f][1,2,4]triazin-4-amine] yielded an EC50 [1] of 10 nM and an EC50 [2] of 199 nM.
In the case of CCCC(CCO)Oc1nc(N)c2ncc(Cc3ccc(OCC(C)NC)nc3)n2n1 (single isomer, unassigned) [Compound A122, (R or S)-3-((4-amino-7-((6-(2-(methylamino)propoxy)pyridin-3-yl)methyl)imidazo[2,1-f][1,2,4]triazin-2-yl)oxy)hexan-1-ol], the EC50 [1] is reported as 6 nM and the EC50 [2] is reported as 113 nM.
CCC(CC)Oc1nc(N)c2ncc(Cc3ccc(OCCNC)nc3)n2n1 [Compound A83, 7-((6-(2-(methylamino)ethoxy)pyridin-3-yl)methyl)-2-(pentan-3-yloxy)imidazo[2,1-f][1,2,4]triazin-4-amine] gave an EC50 [1] of 42.6 nM and an EC50 [2] of 458 nM.
In the case of CCCC(CCO)Oc1nc(N)c2ncc(Cc3ccc(OCCNC)c4ccccc34)n2n1 (single isomer, unassigned) [Compound A124, (R or S)-3-((4-amino-7-((4-(2-(methylamino)ethoxy)naphthalen-1-yl)methyl)imidazo[2,1-f][1,2,4]triazin-2-yl)oxy)hexan-1-ol], the EC50 [1] is reported as 1.2 nM and the EC50 [2] is reported as 105 nM.
For CCC[C@H](C)Oc1nc(N)c2ncc(Cc3ccc(OCCNC)cc3)n2n1 [Compound A100, (S)-7-(4-(2-(methylamino)ethoxy)benzyl)-2-(pentan-2-yloxy)imidazo[2,1-f][1,2,4]triazin-4-amine], the EC50 [1] was 15 nM and the EC50 [2] was 195 nM.
Molecule CCCC(CCO)Oc1nc(N)c2ncc(Cc3ccc(OCCNC)nc3OC)n2n1 (centres unmarked) [Compound A96, 3-((4-amino-7-((2-methoxy-6-(2-(methylamino)ethoxy)pyridin-3-yl)methyl)imidazo[2,1-f][1,2,4]triazin-2-yl)oxy)hexan-1-ol] has an EC50 [1] of 4.3 nM and an EC50 [2] of 29 nM.
Work on CCCC(CCC)Oc1nc(N)c2ncc(Cc3ccc(OCCNC)nc3)n2n1 [Compound A87, 2-(heptan-4-yloxy)-7-((6-(2-(methylamino)ethoxy)pyridin-3-yl)methyl)imidazo[2,1-f][1,2,4]triazin-4-amine] yielded an EC50 [1] of 10.5 nM and an EC50 [2] of 434 nM.
For CCCC(CC)Oc1nc(N)c2ncc(Cc3ccc(OCCNC)nc3)n2n1 (centres unmarked) [Compound A84, 2-(hexan-3-yloxy)-7-((6-(2-(methylamino)ethoxy)pyridin-3-yl)methyl)imidazo[2,1-f][1,2,4]triazin-4-amine], the EC50 [1] was 6.9 nM and the EC50 [2] was 192 nM.
With CCCC(CCO)Oc1nc(N)c2ncc(Cc3ccc(OC(C)CNC)nc3)n2n1 (single isomer, unassigned) [Compound A109, (3R or S)-3-((4-amino-7-((6-((1-(methylamino)propan-2-yl)oxy)pyridin-3-yl)methyl)imidazo [2,1-f][1,2,4]triazin-2-yl)oxy)hexan-1-ol] the EC50 [1] was 3.4 nM and the EC50 [2] was 47 nM.
CCCC(CCO)Oc1nc(N)c2ncc(Cc3cc(OC)cc(OCCNC)c3)n2n1 (single isomer, unassigned) [Compound A116, (R or S)-3-((4-amino-7-(3-methoxy-5-(2-(methylamino)ethoxy)benzyl)imidazo[2,1-f][1,2,4]triazin-2-yl)oxy)hexan-1-ol] showed an EC50 [1] of 37.8 nM and an EC50 [2] of 51 nM.
Work on CCCCOc1nc(N)c2ncc(Cc3ccc(CN4CCC(N)CC4)cc3)n2n1 [Compound A43, 7-(4-((4-aminopiperidin-1-yl)methyl)benzyl)-2-butoxyimidazo[2,1-f][1,2,4]triazin-4-amine] yielded an EC50 [3] of 822 nM and an EC50 [2] of 255 nM.
CCCCOc1nc(N)c2ncc(Cc3ccc(OCCNC)nc3)n2n1 [Compound A58, 2-butoxy-7-((6-(2-(methylamino)ethoxy)pyridin-3-yl)methyl)imidazo[2,1-f][1,2,4]triazin-4-amine] gave an EC50 [3] of 246 nM and an EC50 [2] of 183 nM.
In the case of CCCCOc1nc(N)c2ncc(Cc3ccc(CN4CCNCC4)cc3)n2n1 [Compound A10, 2-butoxy-7-(4-(piperazin-1-ylmethyl)benzyl)imidazo[2,1-f][1,2,4]triazin-4-amine], the EC50 [3] is reported as 1170 nM and the EC50 [2] is reported as 572 nM.
